From PubChem BioAssay AID1963421 (Molecular Pharmacology Branch, DTP, NCI, 2024)

Test system: 519858-162-T-J1-PDC complex spheroid growth, % test/control
Test: Anticancer human tumor 519858-162-T-J1-PDC patient-derived colon adenocarcinoma cell line growth inhibition [Asc]
Conditions: for IC50: curve of first compound; for viability, T/C: stronger effect = lower value
In short: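 Tumor cells were grown as multicellular spheroids with stromal HUVEC and mesenchymal stem cells and treated singly or in combination. Concentrations fell in half-log steps from the clinical Cmax, or from 10 microM where none was known.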

[1] = second compound 0.0316 µM, first compound 0.0316 µM
[2] = second compound 0.0316 µM, first compound 0.1 µM
[3] = second compound 0.1 µM, first compound 0.0316 µM
[4] = second compound 0.1 µM, first compound 0.1 µM
[5] = second compound 0.316 µM, first compound 0.0316 µM
[6] = second compound 0.316 µM, first compound 0.1 µM
[7] = second compound 1 µM, first compound 0.0316 µM
[8] = second compound 1 µM, first compound 0.1 µM
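Note: seven day drug exposure begun three days after spheroid seeding.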
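Throughout, for viability, T/C: 100% = DMSO vehicle wells and lower values mean less viable spheroid.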

`Cn1ncnc1[C@H]1c2n[nH]c(=O)c3cc(F)cc(c23)N[C@@H]1c1ccc(F)cc1` + CNC(C)C(=O)NC1CN(S(=O)(=O)c2cccc(S(=O)(=O)N3CCC4CCC(C(=O)NC(c5ccccc5)c5ccccc5)N4C(=O)C(NC(=O)C(C)NC)C3)c2)CCC2CCC(C(=O)NC(c3ccccc3)c3ccccc3)N2C1=O showed an IC50 (second compound 0.00316 µM) of over 100 nM, an IC50 (second compound 0.01 µM) of over 100 nM and an IC50 (second compound 0.0316 µM) of over 100 nM. For the same compound, the IC50 (second compound 0.1 µM) was over 100 nM, the IC50 (second compound 0.316 µM) was over 100 nM and the IC50 (second compound 1 µM) was over 100 nM. For the same compound, the viability, T/C (second compound 0.00316 µM, first compound 0.000316 µM) was 71.1%, the viability, T/C (second compound 0.00316 µM, first compound 0.001 µM) was 64.9% and the viability, T/C (second compound 0.00316 µM, first compound 0.00316 µM) was 59.8%. For the same compound, the viability, T/C (second compound 0.00316 µM, first compound 0.01 µM) was 62.1%, the viability, T/C (second compound 0.00316 µM, first compound 0.0316 µM) was 60.9% and the viability, T/C (second compound 0.00316 µM, first compound 0.1 µM) was 69.1%. The viability, T/C (second compound 0.01 µM, first compound 0.000316 µM) was 94.7%, the viability, T/C (second compound 0.01 µM, first compound 0.001 µM) was 94.5% and the viability, T/C (second compound 0.01 µM, first compound 0.00316 µM) was 113%. The viability, T/C (second compound 0.01 µM, first compound 0.01 µM) was 86.8%, the viability, T/C (second compound 0.01 µM, first compound 0.0316 µM) was 103% and the viability, T/C (second compound 0.01 µM, first compound 0.1 µM) was 78.4%. The viability, T/C (second compound 0.0316 µM, first compound 0.000316 µM) was 103%, the viability, T/C (second compound 0.0316 µM, first compound 0.001 µM) was 83% and the viability, T/C (second compound 0.0316 µM, first compound 0.00316 µM) was 90.3%. The viability, T/C (second compound 0.0316 µM, first compound 0.01 µM) was 87.5%, the viability, T/C [1] was 102% and the viability, T/C [2] was 77.6%. For the same compound, the viability, T/C (second compound 0.1 µM, first compound 0.000316 µM) was 70.6%, the viability, T/C (second compound 0.1 µM, first compound 0.001 µM) was 78.3% and the viability, T/C (second compound 0.1 µM, first compound 0.00316 µM) was 83.4%. The viability, T/C (second compound 0.1 µM, first compound 0.01 µM) was 107%, the viability, T/C [3] was 80.9% and the viability, T/C [4] was 97.5%. It also gave a viability, T/C (second compound 0.316 µM, first compound 0.000316 µM) of 83.7%, a viability, T/C (second compound 0.316 µM, first compound 0.001 µM) of 99.3% and a viability, T/C (second compound 0.316 µM, first compound 0.00316 µM) of 89.4%. The viability, T/C (second compound 0.316 µM, first compound 0.01 µM) was 97%, the viability, T/C [5] was 64.3% and the viability, T/C [6] was 83.6%. The viability, T/C (second compound 1 µM, first compound 0.000316 µM) was 92.6%, the viability, T/C (second compound 1 µM, first compound 0.001 µM) was 76.3% and the viability, T/C (second compound 1 µM, first compound 0.00316 µM) was 83.3%. For the same compound, the viability, T/C (second compound 1 µM, first compound 0.01 µM) was 71.3%, the viability, T/C [7] was 90.6% and the viability, T/C [8] was 78.1%.

Work on `O=C(c1ccc(F)c(F)c1Nc1ccc(I)cc1F)N1CC(O)([C@@H]2CCCCN2)C1` + CCN1C(C(=O)NC23CCC(C(=O)O)(CC2)CC3)C(c2cccc(Cl)c2F)C2(C(=O)Nc3cc(Cl)ccc32)C12CCCCC2 yielded an IC50 (second compound 0.00949 µM) of 213 nM, an IC50 (second compound 0.03 µM) of 130 nM and an IC50 (second compound 0.0949 µM) of 211 nM. It also gave an IC50 (second compound 0.3 µM) of 250 nM, an IC50 (second compound 0.949 µM) of 246 nM and an IC50 (second compound 3 µM) of 167 nM. It also gave a viability, T/C (second compound 0.00949 µM, first compound 0.00316 µM) of 57.3%, a viability, T/C (second compound 0.00949 µM, first compound 0.01 µM) of 86.8% and a viability, T/C (second compound 0.00949 µM, first compound 0.0316 µM) of 88.8%. For the same compound, the viability, T/C (second compound 0.00949 µM, first compound 0.1 µM) was 116%, the viability, T/C (second compound 0.00949 µM, first compound 0.316 µM) was 30.6% and the viability, T/C (second compound 0.00949 µM, first compound 1 µM) was 19.1%. The viability, T/C (second compound 0.03 µM, first compound 0.00316 µM) was 126%, the viability, T/C (second compound 0.03 µM, first compound 0.01 µM) was 91.1% and the viability, T/C (second compound 0.03 µM, first compound 0.0316 µM) was 93.1%. The viability, T/C (second compound 0.03 µM, first compound 0.1 µM) was 56%, the viability, T/C (second compound 0.03 µM, first compound 0.316 µM) was 42.5% and the viability, T/C (second compound 0.03 µM, first compound 1 µM) was 17.6%. It also gave a viability, T/C (second compound 0.0949 µM, first compound 0.00316 µM) of 105%, a viability, T/C (second compound 0.0949 µM, first compound 0.01 µM) of 115% and a viability, T/C (second compound 0.0949 µM, first compound 0.0316 µM) of 64.8%. For the same compound, the viability, T/C (second compound 0.0949 µM, first compound 0.1 µM) was 79.9%, the viability, T/C (second compound 0.0949 µM, first compound 0.316 µM) was 36.1% and the viability, T/C (second compound 0.0949 µM, first compound 1 µM) was 15.5%. It also gave a viability, T/C (second compound 0.3 µM, first compound 0.00316 µM) of 90.5%, a viability, T/C (second compound 0.3 µM, first compound 0.01 µM) of 90% and a viability, T/C (second compound 0.3 µM, first compound 0.0316 µM) of 66.1%. The viability, T/C (second compound 0.3 µM, first compound 0.1 µM) was 91.8%, the viability, T/C (second compound 0.3 µM, first compound 0.316 µM) was 41.1% and the viability, T/C (second compound 0.3 µM, first compound 1 µM) was 17.2%. For the same compound, the viability, T/C (second compound 0.949 µM, first compound 0.00316 µM) was 81%, the viability, T/C (second compound 0.949 µM, first compound 0.01 µM) was 64% and the viability, T/C (second compound 0.949 µM, first compound 0.0316 µM) was 73%. It also gave a viability, T/C (second compound 0.949 µM, first compound 0.1 µM) of 70.1%, a viability, T/C (second compound 0.949 µM, first compound 0.316 µM) of 44.3% and a viability, T/C (second compound 0.949 µM, first compound 1 µM) of 21.9%. It also gave a viability, T/C (second compound 3 µM, first compound 0.00316 µM) of 68.4%, a viability, T/C (second compound 3 µM, first compound 0.01 µM) of 104% and a viability, T/C (second compound 3 µM, first compound 0.0316 µM) of 46.3%. The viability, T/C (second compound 3 µM, first compound 0.1 µM) was 65.7%, the viability, T/C (second compound 3 µM, first compound 0.316 µM) was 39.5% and the viability, T/C (second compound 3 µM, first compound 1 µM) was 14.3%.

`C=C(F)C(=O)N1CCN(c2nc(OCC3CCCN3C)nc3c2CCN(c2cccc4cccc(Cl)c24)C3)CC1CC#N` (stereo unspecified) + Cc1c(S(C)(=O)=O)c(-c2cc(F)cc(N3CCN(c4ccc(NS(=O)(=O)c5ccc(NC(CCN6CCC(C(=O)OCCCP(=O)(O)O)CC6)CSc6ccccc6)c(S(=O)(=O)C(F)(F)F)c5)cc4)CC3)c2)c(-c2ccc(Cl)cc2)n1C(C)C showed an IC50 (second compound 0.0316 µM) of under 31.6 nM, an IC50 (second compound 0.1 µM) of 9040 nM and an IC50 (second compound 0.316 µM) of 6370 nM. For the same compound, the IC50 (second compound 1 µM) was 5090 nM, the IC50 (second compound 3.16 µM) was 2510 nM and the IC50 (second compound 10 µM) was 2690 nM. The viability, T/C [1] was 43.8%, the viability, T/C [2] was 78.2% and the viability, T/C (second compound 0.0316 µM, first compound 0.316 µM) was 94.3%. For the same compound, the viability, T/C (second compound 0.0316 µM, first compound 1 µM) was 98.9%, the viability, T/C (second compound 0.0316 µM, first compound 3.16 µM) was 82.6% and the viability, T/C (second compound 0.0316 µM, first compound 10 µM) was 64.9%. It also gave a viability, T/C [3] of 115%, a viability, T/C [4] of 111% and a viability, T/C (second compound 0.1 µM, first compound 0.316 µM) of 103%. The viability, T/C (second compound 0.1 µM, first compound 1 µM) was 89%, the viability, T/C (second compound 0.1 µM, first compound 3.16 µM) was 84.8% and the viability, T/C (second compound 0.1 µM, first compound 10 µM) was 45.3%. For the same compound, the viability, T/C [5] was 95.9%, the viability, T/C [6] was 102% and the viability, T/C (second compound 0.316 µM, first compound 0.316 µM) was 88%. For the same compound, the viability, T/C (second compound 0.316 µM, first compound 1 µM) was 70.2%, the viability, T/C (second compound 0.316 µM, first compound 3.16 µM) was 61.9% and the viability, T/C (second compound 0.316 µM, first compound 10 µM) was 43.5%. For the same compound, the viability, T/C [7] was 102%, the viability, T/C [8] was 84.7% and the viability, T/C (second compound 1 µM, first compound 0.316 µM) was 116%. For the same compound, the viability, T/C (second compound 1 µM, first compound 1 µM) was 86.5%, the viability, T/C (second compound 1 µM, first compound 3.16 µM) was 62.8% and the viability, T/C (second compound 1 µM, first compound 10 µM) was 33.2%. It also gave a viability, T/C (second compound 3.16 µM, first compound 0.0316 µM) of 86.9%, a viability, T/C (second compound 3.16 µM, first compound 0.1 µM) of 74.1% and a viability, T/C (second compound 3.16 µM, first compound 0.316 µM) of 81.8%. The viability, T/C (second compound 3.16 µM, first compound 1 µM) was 61.1%, the viability, T/C (second compound 3.16 µM, first compound 3.16 µM) was 47.9% and the viability, T/C (second compound 3.16 µM, first compound 10 µM) was 13.5%. The viability, T/C (second compound 10 µM, first compound 0.0316 µM) was 86.7%, the viability, T/C (second compound 10 µM, first compound 0.1 µM) was 66.5% and the viability, T/C (second compound 10 µM, first compound 0.316 µM) was 72.4%. It also gave a viability, T/C (second compound 10 µM, first compound 1 µM) of 62.3%, a viability, T/C (second compound 10 µM, first compound 3.16 µM) of 51.4% and a viability, T/C (second compound 10 µM, first compound 10 µM) of 3.12%.
